Source: patent publication US7417169B2, “Amino alcohol derivatives, medicinal composition containing the same, and use of these” (Kissei Pharmaceutical Co., Ltd., priority 2003, dated 2008)

Key:
Type in all cases: cell-based
human β3-adrenoceptor = target: T1, human β3-adrenoceptor (Homo sapiens, UniProt P13945); assay: Measurement of agonistic activities on human β3-adrenoceptor (cAMP accumulation in SK-N-MC cells); details: for Emax: SK-N-MC cells, maximum reaction relative to maximum reaction of isoproterenol (100%), read-out: β3 receptor I.A. (intrinsic activity); for EC50: SK-N-MC cells with CGP-20712A, cAMP, concentration giving 50% of the maximum reaction of isoproterenol, read-out: β3 receptor EC50
T1 construct: SK—N-MC cells (American Type Culture Collection, 1×10^5cell/mL) were put in 96 well plates; host or cells: SK-N-MC cells
T1 sequence (P13945 whole entry): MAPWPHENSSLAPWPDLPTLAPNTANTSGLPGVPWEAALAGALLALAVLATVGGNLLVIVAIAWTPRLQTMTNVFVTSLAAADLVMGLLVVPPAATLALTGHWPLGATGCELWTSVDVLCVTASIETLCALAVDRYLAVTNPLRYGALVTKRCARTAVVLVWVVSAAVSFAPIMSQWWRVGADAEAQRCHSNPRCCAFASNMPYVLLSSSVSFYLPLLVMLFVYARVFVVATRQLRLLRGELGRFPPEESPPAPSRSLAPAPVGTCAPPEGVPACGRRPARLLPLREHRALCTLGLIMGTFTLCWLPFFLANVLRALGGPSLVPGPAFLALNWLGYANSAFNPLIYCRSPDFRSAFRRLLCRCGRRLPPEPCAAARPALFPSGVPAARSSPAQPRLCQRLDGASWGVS
Experimental: Measurement of Agonistic Activities on Human β3-Adrenoceptor
Test compounds were dissolved in 50% dimethyl sulfoxide to make a 10^−2 M solution. Then, a series of 1:10 dilutions containing a maximal dose of 1×10^−4 M were prepared using D-PBS (−) (Gibco-BRL: LIFE TECHNOLOGIES). The series were used for a testing sample to measure activity. SK—N-MC cells (American Type Culture Collection, 1×10^5cell/mL) were put in 96 well plates by 100 μL and were cultured for about 24 hours. Forty μL of D-PBS and 20 μL of CGP-20712A (FUNAKOSHI, 3×10^−6 mol/L D-PBS solution) were added in them and incubated for 20 minutes. After that, 20 μL of 3-isobutyl-1-methylxanthine (SIGMA, 1×10^−2 mol/L D-PBS solution) and 20 μL of testing sample were added in them and they were incubated under an atmosphere of 5% CO2 at 37° C. for 30 minutes. cAMP concentrations accumulated in cells were reacted in cAMP-Screen (Applied Biosystems) and were detected by Microplate Luminometer TR717 (Applied Biosystems). The maximum reaction of isoproterenol, a positive contrast, was taken as a 100%, and the concentration of a test compound which gave reaction of the 50% was calculated as an EC50 value. In addition, the ratio of the maximum reaction of the test compound against the maximum reaction of isoproterenol was calculated as an intrinsic activity (I.A.). (R)-3′-[[2-[[2-(3-chlorophenyl)-2-hydroxyethyl]aminoethoxy]-[1,1′-biphenyl]-3-carboxylic acid which was described in WO99/65877 was also examined as a comparison example.

human β1-adrenoceptor = target: T2, human β1-adrenoceptor (Homo sapiens, UniProt P08588); assay: Measurement of agonistic activities on human β1-adrenoceptor (cAMP accumulation in transfected CHO cells); details: CHO cells expressing human β1-adrenoceptor; for EC50: cAMP, concentration giving 50% of the maximum reaction of isoproterenol, read-out: β1 receptor EC50; for Emax: maximum reaction relative to isoproterenol (100%), read-out: β1 receptor I.A. (intrinsic activity)
T2 construct: Both ends of a domain including full length of human β1-adrenoceptor were amplified; expressed in transfected cells; host or cells: CHO cells (transient transfection of pCI-neo plasmid, Lipofectamine 2000)
T2 sequence (P08588 whole entry): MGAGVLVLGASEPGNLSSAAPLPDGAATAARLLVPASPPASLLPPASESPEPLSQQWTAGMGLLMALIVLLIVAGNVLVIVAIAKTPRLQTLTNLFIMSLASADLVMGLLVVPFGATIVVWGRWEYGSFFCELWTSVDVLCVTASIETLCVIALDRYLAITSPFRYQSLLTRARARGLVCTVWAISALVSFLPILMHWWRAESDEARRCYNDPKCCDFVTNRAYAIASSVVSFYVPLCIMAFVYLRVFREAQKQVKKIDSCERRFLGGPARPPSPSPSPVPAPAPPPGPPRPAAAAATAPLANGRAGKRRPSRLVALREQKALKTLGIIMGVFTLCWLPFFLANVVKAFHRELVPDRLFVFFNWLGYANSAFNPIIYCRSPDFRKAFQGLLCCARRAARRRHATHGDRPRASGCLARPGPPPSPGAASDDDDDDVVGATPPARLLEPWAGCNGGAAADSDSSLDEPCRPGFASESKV
Description: (§1) Measurement of Agonistic Activities on Human β1- and β2-Adrenoceptors
Both ends of a domain including full length of human β1-adrenoceptor were amplified on the basis of DNA base information that is registered with GenBank/EMBL data base as Accession No. J03019. DNA fragment which was amplified was inserted into a vector for cloning and amplified in Escherichia coli bacteria. The plasmid which was cloned was inserted into a vector pCI-neo (Promega) for protein expression and plasmid DNA was extracted and purified, then it was used for a preparation of the following expression cells.
1) Preparation of Human β1-Adrenoceptor Expressed Cells
(§2) The plasmid (320 ng) for expression which was obtained in the previous section was transfected into 5×10^4 CHO cells suspended in DMEM (Gibco-BRL: LIFE TECHNOLOGIES) containing 10% fetal bovine serum (Sanko Junyaku) by means of Lipofectoamine2000 (Invitrogen). These cells were dispensed in 96 well plate by 5×10^4 cells/100 μL per well and were cultured under an atmosphere of 5% CO2 at 37° C. for 24 hours, and were used for the assay.
(§3) 3. Measurement of Agonistic Activities on Human β1- and β2-Adrenoceptors
(§4) Test compounds were dissolved in 50% dimethyl sulfoxide to make a 10^−2 M solution. Then, a series of 1:10 dilutions containing a maximal dose of 2×10^−4 M were prepared using D-PBS (−) (Gibco-BRL: LIFE TECHNOLOGIES). The series were used for a testing sample to measure activity. The culture medium of CHO cells of previous section was removed and washed twice with 200 μL D-PBS (−) per well. After that, 50 μL of 3-isobutyl-1-methylxanthine (SIGMA, 1 mM) was added and leaved at rest for 5 minutes, and 50 μL of testing sample were added in them and they were incubated under an atomosphere of 5% CO2 at 37° C. for 30 minutes. cAMP concentrations accumulated in cells were reacted in cAMP-Screen (Applied Biosystems) and were detected by Microplate Luminometer TR717 (Applied Biosystems). The maximum reaction of isoproterenol, a positive contrast, was taken as a 100%, and the concentration of a test compound which gave reaction of the 50% was calculated as an EC50 value. In addition, the ratio of the maximum reaction of the test compound against the maximum reaction of isoproterenol was calculated as an intrinsic activity (I.A.).
(§5) (R)-3′-[[2-[[2-(3-chlorophenyl)-2-hydroxyethyl]aminoethoxy]-[1,1′-biphenyl]-3-carboxylic acid which was described in WO99/65877 was also examined as a comparison example.

human β2-adrenoceptor = target: T3, human β2-adrenoceptor (Homo sapiens, UniProt P07550, E27Q/G16R); assay: Measurement of agonistic activities on human β2-adrenoceptor (cAMP accumulation in transfected CHO cells); details: CHO cells expressing human β2-adrenoceptor; for Emax: maximum reaction relative to isoproterenol (100%), read-out: β2 receptor I.A. (intrinsic activity); for EC50: cAMP, concentration giving 50% of the maximum reaction of isoproterenol, read-out: β2 receptor EC50
T3 construct: expressed in transfected cells; host or cells: CHO cells (transient transfection, Lipofectamine 2000)
T3 sequence (P07550 whole entry G16R/E27Q): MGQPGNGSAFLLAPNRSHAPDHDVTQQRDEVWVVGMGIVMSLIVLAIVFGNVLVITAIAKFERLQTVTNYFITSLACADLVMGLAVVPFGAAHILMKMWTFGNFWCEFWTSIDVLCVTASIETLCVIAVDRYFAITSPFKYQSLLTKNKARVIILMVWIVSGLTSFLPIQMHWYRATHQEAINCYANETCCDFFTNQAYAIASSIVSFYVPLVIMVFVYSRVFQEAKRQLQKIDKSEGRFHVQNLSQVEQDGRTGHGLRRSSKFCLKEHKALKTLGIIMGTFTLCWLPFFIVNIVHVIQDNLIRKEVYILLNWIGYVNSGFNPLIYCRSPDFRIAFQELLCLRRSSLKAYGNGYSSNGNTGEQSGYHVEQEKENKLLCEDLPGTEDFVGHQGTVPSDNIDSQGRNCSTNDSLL
Description: as §1
The primer which added a restriction enzyme recognition region to 5′ end was designed on the basis of the base information that is registered with GenBank/EMBL data base as Accession No. M15169, and the clone was obtained by performance of PCR using human bladder origin cDNA as a template. The clone was inserted into pGEM-T vector and was amplified in Escherichia coli bacteria as a plasmid, and it was purified and the sequence of full length and around of insertion sequence determined by means of 310 Genetic Analyzer (ABI).
2) Preparation of Human β2-Adreoceptor Expressed Cells
as §2, with “(80” for “(320”, “expression” for “expression which was”
as §3, §4, §5

Emax (human β3-adrenoceptor)	EC50 (human β1-adrenoceptor)	Emax (human β1-adrenoceptor)	Emax (human β2-adrenoceptor)	EC50 (human β3-adrenoceptor)	EC50 (human β2-adrenoceptor)	Structure (SMILES)
27%	742 nM	60%	15%			O=C(O)c1cccc(-c2cccc(OCCNC[C@H](O)c3cccc(Cl)c3)c2)c1 [comparison, reference compound]
222%		49%	60%	14.2 nM	200 nM	Cc1cc(-c2ccc(OCC(=O)O)cc2)cc(C)c1OCCN[C@@H](C)[C@H](O)c1ccc(O)c(NS(C)(=O)=O)c1 [Compound 9, (4′-{2-[(1S,2R)-2-Hydroxy-2-(4-hydroxy-3-methanesulfonylaminophenyl)-1-methylethylamino]ethoxy}-3′,5′-dimethylbiphenyl-4-yloxy)acetic acid]
154%	9330 nM	86%	61%	57.1 nM	4490 nM	CS(=O)(=O)Nc1cc([C@@H](O)CNCCOc2ccc(-c3ccc(C(=O)O)c(C(=O)O)c3)cc2)ccc1O [Compound 21, 4′-{2-[(R)-2-Hydroxy-2-(4-hydroxy-3-methanesulfonylaminophenyl)ethylamino]ethoxy}biphenyl-3,4-dicarboxylic acid]
112%	1670 nM	85%	27%	19.3 nM		CCOc1cc(-c2ccc(OCCNC[C@H](O)c3ccc(O)c(NS(C)(=O)=O)c3)cc2)ccc1C(=O)O [Compound 28, 3-Ethoxy-4′-{2-[(R)-2-hydroxy-2-(4-hydroxy-3-methanesulfonylaminophenyl)ethylamino]ethoxy}biphenyl-4-carboxylic acid]
